Legend:
5-HT3 receptor = target: T1, 5-HT3 receptor (Mus musculus, UniProt P23979); details: radioligand binding; read-out: Ki, affinity for the 5-HT3 receptor; cited from earlier work
T1 construct: host or cells: N1E-115 mouse neuroblastoma cells
T1 sequence (P23979 24-489): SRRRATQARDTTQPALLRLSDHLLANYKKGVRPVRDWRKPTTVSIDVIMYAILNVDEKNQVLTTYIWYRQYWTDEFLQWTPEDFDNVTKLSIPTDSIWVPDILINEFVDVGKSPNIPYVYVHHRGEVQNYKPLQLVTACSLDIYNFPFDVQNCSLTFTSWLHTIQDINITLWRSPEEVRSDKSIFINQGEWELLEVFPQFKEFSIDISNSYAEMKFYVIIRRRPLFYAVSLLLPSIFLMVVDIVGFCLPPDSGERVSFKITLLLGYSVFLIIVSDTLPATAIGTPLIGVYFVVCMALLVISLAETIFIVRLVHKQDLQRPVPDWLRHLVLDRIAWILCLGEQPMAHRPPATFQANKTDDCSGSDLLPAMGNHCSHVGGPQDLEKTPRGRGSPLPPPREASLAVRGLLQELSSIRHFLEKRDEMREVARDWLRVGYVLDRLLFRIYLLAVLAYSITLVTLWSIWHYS

muscarinic receptors = details: cited from earlier work
[1] = system: Monoamine Oxidase-A (MAO-A); details: cited from earlier work
[2] = system: Monoamine Oxidase-B (MAO-B); details: cited from earlier work
[3] = system: cisplatin-induced retching and vomiting; assay: Cisplatin-induced emesis in the ferret; assay type: in vivo, ferret (Mustela putariofuro); details: for Latency: first emetic event; for Effect on latency of the first emetic response (in words): across doses tested i.p.; for Effect on number of cisplatin-induced emetic events (in words): across doses tested i.p. (ondansetron 5, 10 mg/kg; MCI-225 1, 10, 30 mg/kg); for Retches (360 min) / Vomits (360 min) / Total Events: male ferrets; for Total Events: 360 min
Procedure: The ability of MCI-225 to reduce retching and vomiting in an accepted model of cytotoxin-induced emesis in the ferret was assessed. Specifically, the experiments described herein investigated the effect of MCI-225 on retching and vomiting induced by cisplatin. Ondansetron was used as a positive control in the model, in view of its known antiemetic activity. Adult male ferrets (Mustela putariofuro) weighing 1200–1880 g were purchased from Triple F Farms (Sayre, Pa.) and housed in individual cages at standardized conditions (12:12 h light/dark cycle and 21–23° C.). Prior to the experiments, the ferrets were allowed a 7–10 day acclimatization period to the animal facility. The ferrets were fed a carnivore diet with free access to food and water throughout the course of the study. The use of the ferret model of emesis and the drug treatment were preapproved in accordance with facility standards. A cisplatin solution was prepared by adding preheated (70° C.) saline to cisplatin powder (Sigma-Aldrich Co.) and stirring or sonicating at 40° C. until dissolved. Following administration of the cisplatin and either MCI-225, ondansetron or vehicle alone, the occurrence of retching and vomiting was monitored for a period of 6 hours. Retching was defined as the number of forceful rhythmic contractions of the abdomen occurring with the animal in characteristic posture, but not resulting in the expulsion of upper gastrointestinal tract contents (Watson et al., British Journal of Pharmacology, 115(1): 84–94 (1994)). Vomiting was defined as the forceful oral expulsion of upper gastrointestinal contents. The latency of the retching or vomiting response and the number of episodes were recorded for each animal and summarized for each experimental group (Wright et al., Infect. Immun., 68(4): 2386–9 (2000)). Following one hour of acclimation to the observation cage, ferrets received an intraperitoneal (i.p.) injection of cisplatin (5 mg/kg in 5 mL) followed in about 2 minutes by i.p. injection of a single dose of MCI-225 or ondansetron (Rudd and Naylor, Eur. J. Pharmacol., 322: 79–82 (1997)). Dose-response effects of MCI-225 dosed at 1, 10 and 30 mg/kg i.p. in a 0.5 ml/kg solution or ondansetron dosed at 5 and 10 mg/kg i.p. in a 0.5 mL/kg solution were studied. Each animal received a single-dose drug treatment. In addition, three animals received an initial dose (30 mg/kg i.p.) and a second MCI-225 injection (30 mg/kg i.p.) 180 minutes following the initial dose. Control animals were treated with cisplatin followed by vehicle alone (propanediol dosed in a 0.5 mL/kg solution). All groups were randomized.

[4] = system: α1, α2, β1, β2, 5-HT1, 5-HT1A, 5-HT1c, 5-HT2, 5-HT4, 5-HT6, 5-HT7, D1, D2, Muscarinic, M1, M2, M3, Nicotonic, H1, H2, GABA-A, GABA-B, BZP, Opiate, CRF and …; details: all receptors tested other than 5-HT3; read-out: IC50, radioligand binding to additional receptors; cited from earlier work
[5] = 10 mg/kg i.p. single dose after cisplatin 5 mg/kg i.p.
[6] = 5 mg/kg i.p. single dose after cisplatin 5 mg/kg i.p.

SMILES	Ki (5-HT3 receptor) [nM]	Anticholinergic activity (muscarinic receptors)	Inhibition of MAO-A activity [1]	Inhibition of MAO-B activity [2]	Latency ([3]; 1 mg/kg i.p. single dose after cisplatin 5 mg/kg i.p.) [min]	Latency [3, 5] [min]	Latency ([3]; 30 mg/kg b.i.d i.p. (two doses, 180-min interval) after cisplatin 5 mg/kg i.p.) [min]	Latency ([3]; 30 mg/kg i.p. single dose after cisplatin 5 mg/kg i.p.) [min]	Effect on latency of the first emetic response (in words) [3]	Effect on number of cisplatin-induced emetic events (in words) [3]	Overall antiemetic efficacy (conclusion) ([3]; similar dose range as ondansetron)	Emetic response (in words) ([3]; two doses of 30 mg/kg, b.i.d at a 180-min interval)	IC50 [4] [nM]	Latency [3, 6] [min]	Retches (360 min) [3, 6]	Vomits (360 min) [3, 6]	Total Events [3, 6]	Retches (360 min) [3, 5]	Vomits (360 min) [3, 5]	Total Events [3, 5]
Cc1cc2c(-c3ccccc3F)nc(N3CCNCC3)nc2s1 [MCI-225, 4-(2-fluorophenyl)-6-methyl-2-(1-piperazinyl)thieno[2,3-d]pyrimidine]	< 100	substantially no anticholinergic activity	did not inhibit	did not inhibit	186 ± 35	192 ± 57	360 ± 0	287 ± 38	increase in the latency of the response	dose-dependent reduction in the retches and vomits	effective at reducing retching and vomiting	eliminated	> 1000							
Cc1nccn1CC1CCc2c(c3ccccc3n2C)C1=O (centres unmarked) [Ondansetron, ondansetron]						313 ± 32			increase in the latency of the first emetic response	dose-dependently reduced the number of emetic events				288 ± 4	11.2 ± 7.0	0.3 ± 0.2	11.5 ± 7.2	2.4 ± 1.6	0.0 ± 0.0	2.4 ± 1.6

Source: US7094786B2, “Method of treating nausea, vomiting, retching or any combination thereof” (Dynogen Pharmaceuticals, Inc., priority 2003, dated 2006)
